Source: patent US20150004704A1, “COMPOSITIONS AND METHODS FOR INCREASING OIL CONTENT IN ALGAE” (A.B. Seeds Ltd., priority 2009, published 2015)
Several values for one entry are separate records, joined by “and”; a condition that tells them apart may be missing. Identical values can stand only once.

Experiments:
Type in all cases: cell-based
[1] = tested on: Chlamydomonas reinhardtii; test: Oil content by Nile Red staining, C. reinhardtii with hormone supplements (Example 2); set-up: Oil content: unit not given here; conditions: for Oil content: Nile Red fluorescence; for Oil content / Normalized oil content: duplicates; for Average normalized oil content: average of duplicates; for Normalized oil content: oil content divided by cell density; for Effect: ratio of average normalized oil content to average of two controls
Procedure: (§1) TX, and were grown at 22° C. under constant white light at an intensity of 175 micromole photon m^−2 s−1. Chlamydomonas reinhardtii (UTEX strain 90), Chlorella vulgaris (UTEX 2714) and Haematococcus pluvialis (UTEX strain 2505) were grown in TAP medium {Harris E H: The Chlamydomonas sourcebook: A comprehensive guide to biology and laboratory use. New-York: Academic Press; 1989}. Phaeodactylum tricornutum (UTEX strain 642) was grown in a modified LDM medium {Lewin, R. A., 1959. The isolation of algae. Rev. algol. no. 3: 182-197}.
(§2) Algae were grown to a concentration of 10^5 cells/ml and divided into 10×250-ml flasks, each containing 50 ml TAP medium with the following hormone supplements (all values are final hormone concentrations):
(§3) IAA: 0.5 mg/liter and 1 mg/liter, NAA: 0.5 mg/liter and 1 mg/liter, 6-BAP: 0.05 mg/liter and 0.1 mg/liter, and Kinetin: 0.05 mg/liter and 0.1 mg/liter. No supplement was added to Controls 1 and 2.
(§4) Oil content was measured, in duplicate, one week after addition of the hormones to the medium, using Nile Red staining. 200 μl of Chlamydomonas reinhardtii cells were placed in a 96-well plate (Costar 3596), mixed with 10 μl of Nile Red solution (N3013, Sigma. 1 mg/ml stock in acetone) and incubated for 15 minutes at room-temperature. Fluorescence was measured using a Thermo Electron Fluroskan Ascent with excitation at 544 nm and emission at 590 nm 200 μl of fresh growth media with 10 μl of Nile Red were used for blank measurements. Fluorescence was normalized against cell density as measured by an EL×808 microplate reader (BIOTEK Instruments Inc) at 450 nm and verified by cell count of selected samples.
(§5) The growth rate in each flask was estimated by measuring the OD (optical density, at 450 nm), which represents cell density. For each treatment the normalized oil content was defined as the oil content divided by the cell density. The average of the normalized oil content of the duplicates for each treatment was calculated. The effect of each treatment was determined by the ratio between the average of the normalized oil content and the average of the two control experiments.

[2] = tested on: Chlamydomonas reinhardtii; test: Cell density (OD 450 nm), C. reinhardtii with hormone supplements (Example 2); conditions: 1 week after addition, duplicates
Procedure: as §2, §3, §4, §5

[3] = tested on: Chlamydomonas reinhardtii; test: Oil content by Nile Red staining with hormone supplements (Example 3); conditions: 1 week, ratio to average of two controls, triplicate
Procedure: as §1
(§6) Algal cells of Chlamydomonas reinhardtii, Phaeodactylum tricornutum and Haematococcus pluvialis, were each grown to a concentration of 10^5 cells/ml and divided into 7×250-ml flasks, each containing 50 ml medium with the following supplements (all values are final hormone concentrations):
(§7) IAA: 1.0 mg/liter, NAA: 1.0 mg/liter, 2,4-D: 1.0 mg/liter, 6-BAP: 0.1 mg/liter, and Kinetin: 0.1 mg/liter.
(§8) Oil content was measured in triplicate 1 week after addition of the hormones to the medium, using Nile Red staining: 200 μl of algal cells were placed in a 96-well plate (Costar 3596), mixed with 10 μl of Nile Red solution (N3013, Sigma. 1 mg/ml stock in acetone) and incubated for 10 minutes at room-temperature. Fluorescence was measured using a Thermo Electron Fluroskan Ascent with excitation at 485 nm and emission at 590 nm 200 μl of fresh growth media with 10 μl of Nile Red were used for blank measurements. Fluorescence was normalized against cell density as measured by an EL×808 microplate reader (BIOTEK Instruments Inc) at 630 nm and verified by cell count of selected samples. For each treatment the normalized oil content was defined as the oil content divided by the cell density. The average of the normalized oil content of the triplicates for each treatment was calculated. The effect of each treatment was determined by the ratio between the average of the normalized oil content and the average of the two control experiments.

[4] = tested on: Haematococcus pluvialis; test: as above; conditions: 1 week, ratio to average of two controls, triplicate
Procedure: as §1, §6, §7, §8

[5] = tested on: Phaeodactylum tricornutum; test: as above; conditions: 1 week, ratio to average of two controls, triplicate
Procedure: as §1, §6, §7, §8

Compound	Oil content ([1]; supplement 0.5 mg/l, 1 week)	Average normalized oil content ([1]; supplement 0.5 mg/l)	Normalized oil content ([1]; supplement 0.5 mg/l)	Effect ([1]; supplement 0.5 mg/l)	Oil content ([1]; supplement 1.0 mg/l, 1 week)	Average normalized oil content ([1]; supplement 1.0 mg/l)	Normalized oil content ([1]; supplement 1.0 mg/l)	Effect ([1]; supplement 1.0 mg/l)	Cell density ([2]; supplement 0.5 mg/l)	Cell density ([2]; supplement 1.0 mg/l)	Effect of addition of hormones to growth medium on oil content ([3]; supplement 1 mg/l)	Effect of addition of hormones to growth medium on oil content ([4]; supplement 1 mg/l)	Effect of addition of hormones to growth medium on oil content ([5]; supplement 1 mg/l)	Oil content ([1]; supplement 0.05 mg/l, 1 week)	Average normalized oil content ([1]; supplement 0.05 mg/l)	Normalized oil content ([1]; supplement 0.05 mg/l)	Effect ([1]; supplement 0.05 mg/l)	Oil content ([1]; supplement 0.1 mg/l, 1 week)	Average normalized oil content ([1]; supplement 0.1 mg/l)	Normalized oil content ([1]; supplement 0.1 mg/l)	further results
O=C(O)Cc1cccc2ccccc12 [NAA, α-Naphthaleneacetic acid]	2.677 and 2.59	8.67	8.44 and 8.90	1.19 ± 0.04	3.059 and 3.232	10.36	9.84 and 10.88	1.42 ± 0.10	0.32 and 0.29	0.31 and 0.30	0.99 ± 0.01	1.49 ± 0.35	0.90 ± 0.07	–	–	–	–	–	–	–	–
O=C(O)Cc1c[nH]c2ccccc12 [IAA, Indole-3-acetic acid]	2.747 and 2.748	10.17	9.57 and 10.78	1.39 ± 0.11	3.283 and 3.635	10.92	9.89 and 11.96	1.49 ± 0.20	0.29 and 0.26	0.33 and 0.30	1.05 ± 0.11	0.96 ± 0.15	0.97 ± 0.04	–	–	–	–	–	–	–	–
O=C(O)COc1ccc(Cl)cc1Cl [2,4-D, 2,4-dichlorophenoxy acetic acid]	–	–	–	–	–	–	–	–	–	–	1.21 ± 0.03	1.69 ± 0.51	1.09 ± 0.04	–	–	–	–	–	–	–	–
c1ccc(CNc2ncnc3nc[nH]c23)cc1 [6-BAP, 6-Benzylaminopurine]	–	–	–	–	–	–	–	–	–	–	–	–	–	2.709 and 2.587	9.41	9.28 and 9.55	1.29 ± 0.02	3.04 and 2.891	10.65	10.74 and 10.55	Effect ([1]; supplement 0.1 mg/l): 1.46 ± 0.02; Cell density ([2]; supplement 0.05 mg/l): 0.29 and 0.27; Cell density ([2]; supplement 0.1 mg/l): 0.28 and 0.27; Effect of addition of hormones to growth medium on oil content ([3]; supplement 0.1 mg/l): 1.22 ± 0.13; Effect of addition of hormones to growth medium on oil content ([4]; supplement 0.1 mg/l): 1.28 ± 0.20; Effect of addition of hormones to growth medium on oil content ([5]; supplement 0.1 mg/l): 1.32 ± 0.20
c1coc(CNc2ncnc3[nH]cnc23)c1 [Kinetin]	–	–	–	–	–	–	–	–	–	–	–	–	–	3.023 and 3.071	10.47	9.85 and 11.09	1.43 ± 0.12	3.503 and 3.38	12.24	11.91 and 12.57	increase compared to controls (oil content) ([1]; 0.1 mg/liter, 1 week, maximum effect): 67%; Effect ([1]; supplement 0.1 mg/l): 1.67 ± 0.06; Cell density ([2]; supplement 0.05 mg/l): 0.31 and 0.28; Cell density ([2]; supplement 0.1 mg/l): 0.29 and 0.27; Effect of addition of hormones to growth medium on oil content ([3]; supplement 0.1 mg/l): 1.23 ± 0.03; Effect of addition of hormones to growth medium on oil content ([4]; supplement 0.1 mg/l): 1.09 ± 0.03; Effect of addition of hormones to growth medium on oil content ([5]; supplement 0.1 mg/l): 1.19 ± 0.02
